Test results as given in ChEMBL document CHEMBL4007397, “Discovery of First-in-Class, Potent, and Orally Bioavailable Embryonic Ectoderm Development (EED) Inhibitor with Robust Anticancer Efficacy” (J Med Chem, 2017).
pIC50: −log10 of the molar value. In brackets after ≈: the same amount, converted by molar mass. Values belong to the molecule of their own block, whether it stands above or below them. Activity calls are given as the source filed them. No cut-off for these calls is given here.

Key:
Polycomb protein EED [1] = target: T1, Polycomb protein EED (Homo sapiens, UniProt O75530)
Description: Inhibition of recombinant N-terminal GST-tagged EED (76 to 441 residues) (unknown origin) expressed in Escherichia coli BL21-CodonPlus(DE3)-RIL assessed as reduction in SAH production using H3[21-44,K27Me0) peptide as substrate measured after 20 mins by LC/MS/MS method

[2] = Protein binding in mouse plasma assessed as unbound fraction; format: ADME, cell-free
Mus musculus [3] = experiment: Dose normalized AUC in CD-1 mouse at 2 mg/kg, po by LC-MS/MS analysis; format: ADME, organism-based; conditions: in vivo
in vivo [4] = conditions: CD-1, mouse
in vivo [5] = conditions: CD-1, mouse, iv, 1 mg/kg
Description: Volume of distribution at steady state in CD-1 mouse at 1 mg/kg, iv or 2 mg/kg, po by LC-MS/MS analysis

Mus musculus [6] = experiment: Dose normalized unbound AUC in CD-1 mouse at 2 mg/kg, po by LC-MS/MS analysis; format: ADME, organism-based; conditions: in vivo
in vivo [7] = conditions: CD-1, mouse, plasma, iv, 1 mg/kg
KARPAS-422 [8] = experiment: Antiproliferative activity against human KARPAS422 cells harboring monoallelic Y641N EZH2 mutation assessed as reduction in cell viability measured every 3 to 4 days up to 14 days by Beckman Coulter-based method; format: functional
Mus musculus [9] = experiment: Dose normalized AUC in CD-1 mouse at 1 mg/kg, iv by LC-MS/MS analysis; format: ADME, organism-based; conditions: in vivo
[10] = (§1) Oral bioavailability in CD-1 mouse at 2 mg/kg by LC-MS/MS analysis; format: ADME, organism-based; conditions: CD-1, mouse, in vivo
[11] = Hepatic extraction ratio in mouse liver microsomes; format: ADME, microsome; conditions: read-out: ERH
Polycomb protein EED [12] = target: T1, Polycomb protein EED; experiment: Inhibition of EED in human G401 cells assessed as reduction in global H3K27me3 level after 48 hrs by ELISA; format: cell-based
[13] = Solubility of the crystalline form of compound in fasted state simulated intestinal fluid; format: physicochemical
[14] = Solubility of the crystalline form of compound at pH 7; format: physicochemical
Mus musculus [15] = experiment: Antitumor activity against human KARPAS422 cells xenografted in Balb/C nude mouse assessed as reduction in tumor volume at 1.5 to 40 mg/kg, po BID for 2 weeks; format: functional, organism-based
Mus musculus [16] = experiment: In-vivo inhibition of EED in Balb/C nude mouse xenografted with human KARPAS422 cells assessed as decrease in global H3K27me3 level at 1.5 to 40 mg/kg, po BID for 21 days; format: functional, organism-based
[17] = Protein binding in Sprague-Dawley rat plasma assessed as unbound fraction; format: ADME, cell-free
[18] = Equilibrium solubility of the compound by high-throughput assay; format: physicochemical
[19] = Solubility of the crystalline form of compound in simulated gastric fluid; format: physicochemical
[20] = Total clearance in Sprague-Dawley rat at 1 mg/kg, iv or 2 mg/kg, po by LC-MS/MS analysis; format: ADME, organism-based; conditions: in vivo
[21] = Plasma protein binding in Beagle dog assessed as unbound fraction; format: ADME, cell-free, Canis lupus familiaris
Rattus norvegicus = experiment: Dose normalized unbound AUC in Sprague-Dawley rat at 2 mg/kg, po by LC-MS/MS analysis; format: ADME, organism-based; conditions: in vivo
[22] = Permeability across apical to basolateral side of human Caco2 cells; format: ADME, cell-based; conditions: Caco-2, read-out: permeability
Mus musculus [23] = experiment: Toxicity in CD-1 mouse assessed as effect on body weight at 300 mg/kg, po BID after 14 day; format: organism-based; conditions: in vivo, 336 h
[24] = Oral bioavailability in Beagle dog at 2 mg/kg by LC-MS/MS analysis; format: ADME, organism-based, Canis lupus familiaris; conditions: in vivo
[25] = Oral bioavailability in Sprague-Dawley rat at 2 mg/kg by LC-MS/MS analysis; format: ADME, organism-based; conditions: in vivo
Canis familiaris = experiment: Dose normalized unbound AUC in Beagle dog at 2 mg/kg, po by LC-MS/MS analysis; format: ADME, organism-based, Canis lupus familiaris; conditions: in vivo
KARPAS-422 [26] = experiment: Antitumor activity against human KARPAS422 cells xenografted in Balb/C nude mouse assessed as tumor regression at 300 mg/kg, po BID for 34 days; format: functional, organism-based
[27] = Solubility of the crystalline form of compound at pH 3; format: physicochemical
[28] = Total clearance in Beagle dog at 1 mg/kg, iv or 2 mg/kg, po by LC-MS/MS analysis; format: ADME, organism-based, Canis lupus familiaris; conditions: in vivo
[29] = Protein binding in human plasma assessed as unbound fraction; format: ADME, cell-free
Mus musculus [30] = experiment: as §1; format: ADME, organism-based; conditions: mouse, in vivo
Polycomb protein EED [31] = target: T1, Polycomb protein EED; experiment: Inhibition of recombinant N-terminal GST-tagged EED (76 to 441 residues) (unknown origin) expressed in Escherichia coli BL21-CodonPlus(DE3)-RIL incubated for 20 mins using EED-H3K27me3 peptide based AlphaScreen competition binding assay

T1 sequence (O75530 whole entry): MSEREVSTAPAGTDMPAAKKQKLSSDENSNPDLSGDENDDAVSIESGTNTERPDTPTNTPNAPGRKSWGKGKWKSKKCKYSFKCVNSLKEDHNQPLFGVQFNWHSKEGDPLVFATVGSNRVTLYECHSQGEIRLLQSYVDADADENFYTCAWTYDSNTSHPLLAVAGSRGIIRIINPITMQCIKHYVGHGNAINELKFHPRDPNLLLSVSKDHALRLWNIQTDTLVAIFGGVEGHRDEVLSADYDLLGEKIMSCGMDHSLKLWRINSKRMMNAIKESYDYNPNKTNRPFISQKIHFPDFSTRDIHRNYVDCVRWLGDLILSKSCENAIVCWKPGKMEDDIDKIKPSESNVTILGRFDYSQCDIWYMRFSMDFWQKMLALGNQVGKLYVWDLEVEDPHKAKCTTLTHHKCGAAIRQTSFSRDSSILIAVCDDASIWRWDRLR

pIC50 (Polycomb protein EED [1]): 7.31
SMILES: CN(C)Cc1ccc(-c2cnc(NCc3ccccc3)n3cnnc23)cc1

pIC50 (Polycomb protein EED [1]): 7.89
SMILES: CN(C)Cc1ccc(-c2cnc(NCc3ccco3)n3cnnc23)cc1

pIC50 (Polycomb protein EED [1]): 4.91
SMILES: Cc1ccc(CNc2ncc(-c3ccc(CN(C)C)cc3)c3nncn23)s1

pIC50 (Polycomb protein EED [1]): 7.03
SMILES: COc1ccccc1CNc1ncc(-c2ccc(CN(C)C)cc2)c2nncn12

pIC50 (Polycomb protein EED [1]): 7.03
SMILES: CN(C)Cc1ccc(-c2cnc(NCc3cccs3)n3cnnc23)cc1

pIC50 (Polycomb protein EED [1]): 4.83
SMILES: COc1ccccc1CNc1c(C#N)cc(-c2ccc(CN(C)C)cc2)c2nncn12

pIC50 (Polycomb protein EED [1]): 7.28
SMILES: CN(C)Cc1ccc(-c2cnc(NCc3sccc3Cl)n3cnnc23)cc1

pIC50 (Polycomb protein EED [1]): 7.72
SMILES: CN(C)Cc1ccc(-c2cnc(NCc3ccoc3)n3cnnc23)cc1

pIC50 (Polycomb protein EED [1]): 6.11
SMILES: CN(C)Cc1ccc(-c2cnc(NCc3ccon3)n3cnnc23)cc1

pIC50 (Polycomb protein EED [1]): 6.82
SMILES: CN(C)Cc1ccc(-c2cnc(NCc3ccc(F)s3)n3cnnc23)cc1

pIC50 (Polycomb protein EED [1]): 6.89
SMILES: CN(C)Cc1ccc(-c2cnc(NCc3ccno3)n3cnnc23)cc1

pIC50 (Polycomb protein EED [1]): 7.31
SMILES: Cc1ccsc1CNc1ncc(-c2ccc(CN(C)C)cc2)c2nncn12

Further lines, the molecule ahead of its results:

SMILES: c1ccc(-c2ccc(NCc3ccco3)n3cncc23)cc1
pIC50 (Polycomb protein EED [1]): 4.83

SMILES: CN(C)Cc1ccc(-c2cc(C#N)c(NCc3cnco3)n3cnnc23)cc1
pIC50 (Polycomb protein EED [1]): 6.82

SMILES: N#Cc1cc(-c2ccccc2)c2nncn2c1NCc1ccco1
pIC50 (Polycomb protein EED [1]): 7.21

SMILES: CCN(c1cc(-c2ccc(CN3CCOCC3)cc2)cc(C(=O)NCc2c(C)cc(C)[nH]c2=O)c1C)C1CCOCC1 [TAZEMETOSTAT]
fraction unbound [2]: 0.014 | AUC/dose (Mus musculus [3]): 254 nM·h | half-life (in vivo [4]): 96 min | Vd (in vivo [5]): 1.2 L/kg | fAUC/dose (Mus musculus [6]): 4 nM·h | clearance (in vivo [7]): 22 mL/min/kg | pIC50 (KARPAS-422 [8]): 7.92 | AUC/dose (Mus musculus [9]): 1303 nM·h | bioavailability [10]: 20%

SMILES: CN(C)Cc1ccc(-c2cc(C#N)c(NCc3cccs3)n3cnnc23)cc1
pIC50 (Polycomb protein EED [1]): 7.70

SMILES: c1ccc(-c2cnc(NCc3ccco3)n3cnnc23)cc1
pIC50 (Polycomb protein EED [1]): 7.28

SMILES: CN(C)Cc1ccc(-c2cc(C#N)c(NCc3sccc3Cl)n3cnnc23)cc1
pIC50 (Polycomb protein EED [1]): 5.63

SMILES: CN(C)Cc1ccc(-c2cc(C#N)c(NCc3ccno3)n3cnnc23)cc1
pIC50 (Polycomb protein EED [1]): 7.16

SMILES: Cc1ccc(CNc2c(C#N)cc(-c3ccc(CN(C)C)cc3)c3nncn23)s1
pIC50 (Polycomb protein EED [1]): 5.65

SMILES: c1coc(CNc2ncc(-c3ccc(CN4CCCC4)cc3)c3nncn23)c1
fraction unbound [2]: 0.381 | hepatic extraction ratio [11]: 0.52 | AUC/dose (Mus musculus [3]): 531 nM·h | pIC50 (Polycomb protein EED [1]): 8.15 | fAUC/dose (Mus musculus [6]): 202 nM·h | pIC50 (Polycomb protein EED [12]): 7.49 | pIC50 (KARPAS-422 [8]): 7.06 | AUC/dose (Mus musculus [9]): 765 nM·h | bioavailability [10]: 71%

SMILES: Cc1ccsc1CNc1c(C#N)cc(-c2ccc(CN(C)C)cc2)c2nncn12
pIC50 (Polycomb protein EED [1]): 4.66

SMILES: N#Cc1c2c(c3nncn3c1Cl)CN(Cc1ccccc1)CC2
pIC50 (Polycomb protein EED [1]): < 4.00

SMILES: CS(=O)(=O)c1ccc(-c2cnc(NCc3ccco3)n3cnnc23)cc1
solubility thermodynamic [13]: 35 µg/mL (≈ 94.7 µM) | fraction unbound [2]: 0.144 to 0.15 | solubility [14]: 25 µg/mL (≈ 67.7 µM) | Activity (Mus musculus [15]): Active | Activity (Mus musculus [16]): Dose-dependent effect | fraction unbound [17]: 0.08 | solubility thermodynamic [18]: 12 µM (≈ 4.43 µg/mL) | solubility [19]: 55 µg/mL (≈ 149 µM) | clearance [20]: 14 mL/min/kg | AUC/dose (Mus musculus [3]): 5648 nM·h | half-life (in vivo [4]): 132 min | pIC50 (Polycomb protein EED [1]): 7.66 | fraction unbound [21]: 0.24 | fAUC/dose (Rattus norvegicus): 1871 nM·h | Papp A→B [22]: 3 ×10⁻⁶ cm/s | Activity (Mus musculus [23]): Non-Toxic | Vd (in vivo [5]): 0.8 L/kg | bioavailability [24]: 68% | fAUC/dose (Mus musculus [6]): 813 nM·h | bioavailability [25]: 60% | fAUC/dose (Canis familiaris): 1907 nM·h | Activity (KARPAS-422 [26]): Active | clearance (in vivo [7]): 8 mL/min/kg | pIC50 (Polycomb protein EED [12]): 6.66 | pIC50 (KARPAS-422 [8]): 7.10 | solubility [27]: 26 µg/mL (≈ 70.4 µM) | AUC/dose (Mus musculus [9]): 534 nM·h | clearance [28]: 16 mL/min/kg | fraction unbound [29]: 0.13 | F (Mus musculus [30]): 109%

SMILES: CN(C)Cc1ccc(-c2cc(C#N)c(NCc3ccoc3)n3cnnc23)cc1
pIC50 (Polycomb protein EED [1]): 8.05

SMILES: CN(C)Cc1ccc(-c2cnc(NCc3cnco3)n3cnnc23)cc1
pIC50 (Polycomb protein EED [1]): 6.54

SMILES: CN(C)Cc1ccc(-c2cc(C#N)c(NCc3ccco3)n3cnnc23)cc1
pIC50 (Polycomb protein EED [1]): 7.89 to 8.05

SMILES: CN(C)Cc1ccc(-c2cc(C#N)c(NCc3ccc(F)s3)n3cnnc23)cc1
pIC50 (Polycomb protein EED [1]): 6.29

SMILES: N#Cc1cc(-c2ccccc2F)c2nncn2c1NCc1ccco1
fraction unbound [2]: 0.0281 | hepatic extraction ratio [11]: 0.8 | AUC/dose (Mus musculus [3]): 714 nM·h | pIC50 (Polycomb protein EED [1]): 7.52 | fAUC/dose (Mus musculus [6]): 20.1 nM·h | pIC50 (Polycomb protein EED [12]): 6.68 | pIC50 (KARPAS-422 [8]): 7.12 | AUC/dose (Mus musculus [9]): 1751 nM·h | bioavailability [10]: 42%

SMILES: CN(C)Cc1ccc(-c2cc(C#N)c(NCc3ccon3)n3cnnc23)cc1
pIC50 (Polycomb protein EED [1]): 7.16

SMILES: N#Cc1ccc2nncn2c1NCc1ccco1
pIC50 (Polycomb protein EED [1]): 6.00

SMILES: N#Cc1c2c(c3nncn3c1NCc1ccco1)CN(Cc1ccccc1)CC2
pIC50 (Polycomb protein EED [1]): 5.39 | pIC50 (Polycomb protein EED [12]): 5.48 | pIC50 (Polycomb protein EED [31]): 6.21

SMILES: CN(C)Cc1ccc(-c2cc(C#N)c(NCc3ccccc3)n3cnnc23)cc1
pIC50 (Polycomb protein EED [1]): 4.66
